Reference: patent US9751869B2, “LXR modulators” (BRISTOL-MYERS SQUIBB COMPANY, priority 2013, dated 2017)
Blank lines part the entries; values can stand above or below the compound they belong to.

Target: T1, LXRβ (Homo sapiens, UniProt P55055)
T1 construct: Co-transfection expression plasmids, comprising full-length LXRα (pCMX-h LXRα or LXRβ (pCMX-hLXRβ)); expressed in transfected cells; host or cells: CV-1 African green monkey kidney cells, transient transfection with pCMX-hLXRβ
T1 sequence (P55055 1-460): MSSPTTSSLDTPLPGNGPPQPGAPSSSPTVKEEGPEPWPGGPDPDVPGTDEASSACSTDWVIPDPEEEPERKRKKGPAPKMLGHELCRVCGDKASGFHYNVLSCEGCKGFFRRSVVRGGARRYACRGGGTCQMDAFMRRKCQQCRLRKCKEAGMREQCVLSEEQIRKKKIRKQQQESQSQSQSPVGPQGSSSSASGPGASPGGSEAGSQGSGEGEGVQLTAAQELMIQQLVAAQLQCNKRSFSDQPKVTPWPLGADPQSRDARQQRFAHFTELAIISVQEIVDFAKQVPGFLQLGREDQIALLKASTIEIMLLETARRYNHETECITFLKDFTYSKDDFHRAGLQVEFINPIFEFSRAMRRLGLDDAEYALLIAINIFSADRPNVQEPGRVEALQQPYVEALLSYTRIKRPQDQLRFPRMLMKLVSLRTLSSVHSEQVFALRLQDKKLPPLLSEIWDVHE
T1 sequence (P19793 1-462 partner): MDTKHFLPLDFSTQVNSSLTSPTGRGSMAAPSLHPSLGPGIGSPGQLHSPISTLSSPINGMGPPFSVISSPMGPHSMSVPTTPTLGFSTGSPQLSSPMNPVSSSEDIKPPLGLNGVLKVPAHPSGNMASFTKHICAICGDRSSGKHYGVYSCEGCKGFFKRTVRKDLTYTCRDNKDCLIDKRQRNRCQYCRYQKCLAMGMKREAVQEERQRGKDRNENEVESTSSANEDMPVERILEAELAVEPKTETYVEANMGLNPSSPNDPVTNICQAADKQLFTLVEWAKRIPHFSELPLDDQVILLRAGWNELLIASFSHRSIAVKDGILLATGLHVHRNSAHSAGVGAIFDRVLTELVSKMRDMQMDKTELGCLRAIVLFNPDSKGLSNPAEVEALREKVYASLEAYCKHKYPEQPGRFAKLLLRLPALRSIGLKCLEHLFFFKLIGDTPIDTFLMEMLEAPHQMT
Assay: LXR/LXRE co-transfection assay (luciferase reporter) in CV-1 cells, LXRβ
Assay type: cell-based
Conditions: for EC50: CV-1 cells transfected with pCMX-hLXRβ and LXREx1-Tk-Luciferase, 20 hours incubation, read-out: LXRbeta agonism EC50; for Emax: read-out: LXRbeta % EFFICACY
Procedure, shortened: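 CV-1 cells transiently co-transfected with full-length human LXRβ, LXRE-Tk-luciferase reporter and β-galactosidase control, then exposed to compound (≤0.5% DMSO) for 20 h at 37 °C before luminescence read. EC50 from 10-point, half-log dose curves; efficacy relative to the sulfonamide high control, means of 2–3 experiments.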

[1] = CV-1 cells, relative to maximum response of high control N-(3-((4-fluorophenyl)-(naphthalene-2-sulfonyl)amino)propyl)-2,2-dimethylpropionamide

Compound: Cn1nc(C(F)(F)C(N)=O)cc1-c1ccc(-c2cc(F)c(CO)c(S(C)(=O)=O)c2)cc1-c1oc(C2CC2)nc1-c1ccc2c(c1)OC(F)(F)O2 [Example 46, 2-(5-(3-(2-cyclopropyl-4-(2,2-difluorobenzo[d][1,3]dioxol-5-yl)oxazol-5-yl)-3′-fluoro-4′-(hydroxymethyl)-5′-(methylsulfonyl)biphenyl-4-yl)-1-methyl-1H-pyrazol-3-yl)-2,2-difluoroacetamide]
EC50: 25 nM
Emax [1]: 45%

Compound: Cc1nc(-c2ccc3c(c2)OC(F)(F)O3)c(-c2cc(-c3cc(F)c(CO)c(S(C)(=O)=O)c3)ccc2-c2cc(C(F)(F)C#N)nn2C)o1 [Example 47, 2-(5-(3-(4-(2,2-difluorobenzo[d][1,3]dioxol-5-yl)-2-methyloxazol-5-yl)-3′-fluoro-4′-(hydroxymethyl)-5′-(methylsulfonyl)biphenyl-4-yl)-1-methyl-1H-pyrazol-3-yl)-2,2-difluoroacetonitrile]
EC50: 663 nM
Emax [1]: 72%

Compound: CNC(=O)C(F)(F)c1cc(-c2ccc(-c3cc(F)c(CO)c(S(C)(=O)=O)c3)cc2-c2oc(C)nc2-c2ccc3c(c2)OC(F)(F)O3)n(C)n1 [Example 50, 2-(5-(3-(4-(2,2-difluorobenzo[d][1,3]dioxol-5-yl)-2-methyloxazol-5-yl)-3′-fluoro-4′-(hydroxymethyl)-5′-(methylsulfonyl)biphenyl-4-yl)-1-methyl-1H-pyrazol-3-yl)-2,2-difluoro-N-methylacetamide]
EC50: 122 nM
Emax [1]: 61%

Compound: Cc1nc(-c2ccc3c(c2)OC(F)(F)O3)c(-c2cc(-c3cc(F)c(CO)c(S(C)(=O)=O)c3)ccc2-c2cc(C(F)(F)c3nnco3)nn2C)o1 [Example 51, (4′-(3-(difluoro(1,3,4-oxadiazol-2-yl)methyl)-1-methyl-1H-pyrazol-5-yl)-3′-(4-(2,2-difluorobenzo[d][1,3]dioxol-5-yl)-2-methyloxazol-5-yl)-3-fluoro-5-(methylsulfonyl)biphenyl-4-yl)methanol]
EC50: 7 nM
Emax [1]: 73%

Compound: Cc1nc(-c2ccc3c(c2)OC(F)(F)O3)c(-c2cc(-c3cc(F)c(CO)c(S(C)(=O)=O)c3)ccc2-c2cc(C(F)(F)c3nnc[nH]3)nn2C)o1 [Example 52, (4′-(3-(difluoro(4H-1,2,4-triazol-3-yl)methyl)-1-methyl-1H-pyrazol-5-yl)-3′-(4-(2,2-difluorobenzo[d][1,3]dioxol-5-yl)-2-methyloxazol-5-yl)-3-fluoro-5-(methylsulfonyl)biphenyl-4-yl)methanol]
EC50: 2520 nM
Emax [1]: 30%

Compound: Cc1nc(-c2ccc3c(c2)OC(F)(F)O3)c(-c2cc(-c3cc(F)c(CO)c(S(C)(=O)=O)c3)ccc2-c2cc(-c3cnco3)nn2C)o1 [Example 57, (3′-(4-(2,2-difluorobenzo[d][1,3]dioxol-5-yl)-2-methyloxazol-5-yl)-3-fluoro-4′-(1-methyl-3-(oxazol-5-yl)-1H-pyrazol-5-yl)-5-(methylsulfonyl)-[1,1′-biphenyl]-4-yl)methanol]
EC50: 158 nM
Emax [1]: 18%

Compound: Cc1nc(-c2ccc3c(c2)OC(F)(F)O3)c(-c2cc(-c3cc(F)c(CO)c(S(C)(=O)=O)c3)ccc2-c2cc(CC#N)nn2C)o1 [Example 58, 2-(5-(3-(4-(2,2-difluorobenzo[d][1,3]dioxol-5-yl)-2-methyloxazol-5-yl)-3′-fluoro-4′-(hydroxymethyl)-5′-(methylsulfonyl)-[1,1′-biphenyl]-4-yl)-1-methyl-1H-pyrazol-3-yl)acetonitrile]
EC50: 18 nM
Emax [1]: 94%

Compound: Cc1nc(-c2ccc3c(c2)OC(F)(F)O3)c(-c2cc(-c3cc(F)c(CO)c(S(C)(=O)=O)c3)ccc2-c2cc([C@H](C)C#N)nn2C)o1 [Example 59, (S)-2-(5-(3-(4-(2,2-difluorobenzo[d][1,3]dioxol-5-yl)-2-methyloxazol-5-yl)-3′-fluoro-4′-(hydroxymethyl)-5′-(methylsulfonyl)-[1,1′-biphenyl]-4-yl)-1-methyl-1H-pyrazol-3-yl)propanenitrile]
EC50: 6 nM
Emax [1]: 76%

Compound: Cc1nc(-c2ccc3c(c2)OC(F)(F)O3)c(-c2cc(-c3cc(F)c(CO)c(S(C)(=O)=O)c3)ccc2-c2cc(C3(C#N)CC3)nn2C)o1 [Example 60, 1-(5-(3-(4-(2,2-difluorobenzo[d][1,3]dioxol-5-yl)-2-methyloxazol-5-yl)-3′-fluoro-4′-(hydroxymethyl)-5′-(methylsulfonyl)-[1,1′-biphenyl]-4-yl)-1-methyl-1H-pyrazol-3-yl)cyclopropanecarbonitrile]
EC50: 7 nM
Emax [1]: 85%

Now from value to compound:

EC50: 695 nM
Emax [1]: 76%
Compound: Cn1nc(C(=O)NC(C)(C)C)cc1-c1ccc(-c2cccc(S(C)(=O)=O)c2)cc1-n1nncc1-c1ccc(OC(F)(F)F)cc1 [Example 40, N-(1,1-dimethylethyl)-1-methyl-5-[3′-(methylsulfonyl)-3-(5-{4-[(trifluoromethyl)oxy]phenyl}-1H-1,2,3-triazol-1-yl)biphenyl-4-yl]-1H-pyrazole-3-carboxamide]

EC50: 297 nM
Emax [1]: 45%
Compound: Cc1nc(-c2ccc3c(c2)OC(F)(F)O3)c(-c2cc(-c3cc(F)cc(S(C)(=O)=O)c3)ccc2-c2cc(C(F)(F)C(N)=O)nn2C)o1 [Example 45, 2-(5-(3-(4-(2,2-difluorobenzo[d][1,3]dioxol-5-yl)-2-methyloxazol-5-yl)-3′-fluoro-5′-(methylsulfonyl)biphenyl-4-yl)-1-methyl-1H-pyrazol-3-yl)-2,2-difluoroacetamide]

EC50: 46 nM
Emax [1]: 27%
Compound: Cc1nc(-c2ccc(OC(F)(F)F)cc2)c(-c2cc(-c3cccc(S(C)(=O)=O)c3)ccc2-c2cc(C(F)(F)C(C)(C)O)nn2C)o1 [Example 48, 1,1-difluoro-2-methyl-1-(1-methyl-5-(3-(2-methyl-4-(4-(trifluoromethoxy)phenyl)oxazol-5-yl)-3′-(methylsulfonyl)biphenyl-4-yl)-1H-pyrazol-3-yl)propan-2-ol]

EC50: 86 nM
LXRbeta % EFFICACY [1]: 69%
Compound: Cc1nc(-c2ccc3c(c2)OC(F)(F)O3)c(-c2cc(-c3cccc(S(C)(=O)=O)c3)ccc2-c2cc(C(F)(F)CO)nn2C)o1 [Example 49, 2-(5-(3-(4-(2,2-difluorobenzo[d][1,3]dioxol-5-yl)-2-methyloxazol-5-yl)-3′-(methylsulfonyl)biphenyl-4-yl)-1-methyl-1H-pyrazol-3-yl)-2,2-difluoroethanol]

EC50: 46 nM
Emax [1]: 94%
Compound: Cc1nc(-c2ccc(OC(F)(F)F)cc2)c(-c2cc(-c3cccc(S(C)(=O)=O)c3)ccc2-c2cc(C(F)(F)F)nn2C)o1 [Example 53, 2-methyl-5-(4-(1-methyl-3-(trifluoromethyl)-1H-pyrazol-5-yl)-3′-(methylsulfonyl)biphenyl-3-yl)-4-(4-(trifluoromethoxy)phenyl)Oxazole]

EC50: 297 nM
Emax [1]: 53%
Compound: Cc1nc(-c2ccc3c(c2)OC(F)(F)O3)c(-c2cc(-c3cccc(S(C)(=O)=O)c3)ccc2-c2cc(C(C)(C)O)nn2C)o1 [Example 54, 2-(5-(3-(4-(2,2-difluorobenzo[d][1,3]dioxol-5-yl)-2-methyloxazol-5-yl)-3′-(methylsulfonyl)biphenyl-4-yl)-1-methyl-1H-pyrazol-3-yl)propan-2-ol]

EC50: 761 nM
Emax [1]: 24%
Compound: Cc1nc(-c2ccc3c(c2)OC(F)(F)O3)c(-c2cc(-c3cc(F)c(CO)c(S(C)(=O)=O)c3)ccc2-c2cc(C(=O)NC(C)(C)C#N)nn2C)o1 [Example 55, N-(2-cyanopropan-2-yl)-5-(3-(4-(2,2-difluorobenzo[d][1,3]dioxol-5-yl)-2-methyloxazol-5-yl)-3′-fluoro-4′-(hydroxymethyl)-5′-(methylsulfonyl)biphenyl-4-yl)-1-methyl-1H-pyrazole-3-carboxamide]

EC50: 1100 nM
Emax [1]: 35%
Compound: Cc1nc(-c2ccc3c(c2)OC(F)(F)O3)c(-c2cc(-c3cc(F)c(CO)c(S(C)(=O)=O)c3)ccc2-c2cc(C(N)=O)nn2C)o1 [Example 56, 5-(3-(4-(2,2-difluorobenzo[d][1,3]dioxol-5-yl)-2-methyloxazol-5-yl)-3′-fluoro-4′-(hydroxymethyl)-5′-(methylsulfonyl)biphenyl-4-yl)-1-methyl-1H-pyrazole-3-carboxamide]
